The subject of test [1] is healthy murine melanocytes. Nature of the test: Quantification of melanin synthesized by melanocytes. Type of test: cell-based. As to conditions: cells treated 24 h; relative to control (=100%); FIG. 3. As for the experimental part: Quantification of synthesized melanin by healthy murine melanocytes was performed according to the protocol described by Ando et al. (J. Lipid Res., 1999, 40, 1312).
Cells were seeded and treated for 24 h with the test product or the used vehicle (ethanol) and with, as a positive control, exposure to a dose of 20 mJ/cm^2 of ultraviolet radiation.
5 Million cells were isolated after centrifugation at 1500 rpm for 5 min at 4° C. The pellet was washed twice with PBS and then transferred into an Eppendorf tube and centrifuged at 5000 g for 5 min. The supernatant was removed. 200 μL of water and 1 mL of EtOH/ether (1/1) were added (melanin was insoluble in this mixture). After 15 min at room temperature, the totality was again centrifuged at 5000 g for 5 min; the supernatant was removed. The pellet was then taken up with 300 μL of a solution of NaOH(1M) in H2O/DMSO 90/10 and placed at 80° C. for one hour. Absorbance was measured at 470 nm. The amount of synthesized melanin was expressed based on the control (=100%).

Test [2] relates to tyrosinase. Briefly: Stimulation of tyrosinase activity in melanocytes (L-DOPA oxidation). Type of test: cell-based, murine. As to conditions: cells treated 24 h; with respect to the control (=100%); FIG. 4. As for the experimental part:
The study was conducted on healthy murine melanocytes. The results were compared with those obtained with a positive control subjected to a dose of 20 mJ/cm^2 of ultraviolet radiation. The cells were treated for 24 h with either the vehicle used (ethanol) or with the test product. The tyrosinase activity was quantified according to the protocol described by Ando et al. (J. Lipid Res. 1999, 40, 1312) as explained below.
5 Million cells were isolated after centrifugation at 1500 rpm for 5 min at 4° C. The pellet was washed twice with PBS and then transferred into an Eppendorf tube and centrifuged at 5000 g for 5 min. The supernatant was removed. 1 mL of 0.5% by mass sodium deoxycholate solution was added (cell lysis). After 15 min at 0° C., 3 mL of a solution of 0.1% by mass of L-DOPA in 0.1M phosphate buffer (pH 6.8) were added. The whole was placed at 37° C. for 10 min. Tyrosinase activity was spectrophotometrically analysed by following the oxidation of L-DOPA to DOPAchrome. Absorbance was measured at 475 nm. The tyrosinase activity was expressed based on the control (=100%), which determines the cell basal tyrosinase activity.

The test system of test [3] is tyrosinase. Briefly: Gene expression by RT-qPCR, tyrosinase. To be noted: 1 μM, 24 h. It is filed as cell-based, murine. As for the experimental part: (§1) Cells were seeded and treated for 24 h with the molecules the action of which we want to study, that is to say here, with DDA (1 μM), on the one hand, and with L7DDA (0.1 or 1 or 2.5 or 5 μM) on the other. The results were compared with irradiated ultraviolet cells as in Example 6.
(§2) To quantify the expression of these genes, RNA extraction from cells was performed. Melanocytes were treated for 24 h with the active molecule or the control agent. 1 mL of Trizol® was added; after 5 min at room temperature, the totality was placed in an Eppendorf tube. 200 μL of CHCl3 were added at 4° C. The Eppendorf tubes were stirred manually, by turning them during 15 sec, left for 5 min at room temperature and then centrifuged at 16000 g at 4° C. for 10 min. The colourless aqueous phase was isolated. 500 μL of isopropanol (−20° C.) were added. The Eppendorf tubes were stirred manually, by turning them during 15 sec, left for 15 min at room temperature and then centrifuged at 16200 g at 4° C. for 10 min. The supernatant was removed. The pellet was washed with 1 mL of 75% ethanol (−20° C.). After centrifugation at 16000 g at 4° C. for 5 min, the supernatant was removed. 10 min after drying, the pellet was resuspended with 30 μL of RNAase-free water. The quantity and purity of RNA were estimated by spectrophotometry (230, 260 and 280 nm). […]

Another test concerns TRP-1. Nature of the test: Gene expression by RT-qPCR, TRP-1. Type of test: cell-based, murine. As to conditions: 1 μM, 24 h. As for the experimental part:
as §1, §2
(In general: In qPCR the cycle at which signal appears reflects the starting amount.)

For a further test, the system named is TRP-2. Nature of the test: Gene expression by RT-qPCR, TRP-2. It is filed as cell-based, murine. As to conditions: 1 μM, 24 h. The protocol:
as §1, §2

In the case of `CC(C)CCC[C@@H](C)[C@H]1CC[C@H]2[C@@H]3C[C@@H](NCCc4c[nH]cn4)[C@@]4(O)C[C@@H](O)CC[C@]4(C)[C@H]3CC[C@]12C` [DDA, 5α-hydroxy-6β-[2-(1H-imidazol-4-yl)ethylamino]cholestan-3β-ol], the synthesis of melanin entry in test [1] is listed as “increase”. Moreover, the “tyrosinase activity in cells” value with tyrosinase [2] is given as “increased”. In the test on tyrosinase [3], the “ΔΔCT (tyrosinase)” value worked out at 6.09. Moreover, the “ΔΔCT (TRP-1)” value with TRP-1 is given as 13.45. In the test with TRP-2, the “ΔΔCT (TRP-2)” value was 6.97.

(Values after patent US20170216179A1, “COSMETIC AND/OR DERMATOLOGICAL COMPOSITION FOR COLOURING THE SKIN” (AFFICHEM, priority 2014, published 2017).)
